Active and inactive are the calls of the source. The rule behind the calls is not given here.
How the values were obtained:
[1] = system: Helicobacter pylori; assay: Antibacterial activity against Helicobacter pylori SS1 infected in Mongolian gerbils assessed as bacterial orientation in luminal mucus layer at 0.25 mg, ip administered as two subsequent doses in 8 hrs dosing interval; type: functional, organism-based
[2] = system: Helicobacter pylori; assay: (§1) Antibacterial activity against Helicobacter pylori SS1 infected in Mongolian gerbils assessed as bacterial density in mucus in central mucus layer at 20 uM, ip administered as single dose through dialysis measured after 90 mins post last dose (reference value: 90+/-60 bacteria per nl of mucus); type: functional
[3] = system: Helicobacter pylori; assay: (§2) Antibacterial activity against Helicobacter pylori SS1 infected in Mongolian gerbils assessed as bacterial density in mucus in 0 to 15 um above the Juxtamucosal layer at 0.25 mg, ip followed by second dose administered as solvent in 24 hrs dosing interval measured after 90 mins post last dose (reference value: 4560+/-400 bacteria per nl of mucus); type: functional
[4] = system: Helicobacter pylori; assay: Antibacterial activity against Helicobacter pylori SS1 infected in Mongolian gerbils assessed as bacterial orientation in central layer at 0.25 mg, ip administered as two subsequent doses in 8 hrs dosing interval; type: functional, organism-based
[5] = system: Helicobacter pylori; assay: as §1, with “0.25 mg,” for “20 uM,”, “two doses in 24 hrs dosing interval” for “single dose through dialysis”; type: functional
[6] = Cmax in Mongolian gerbils plasma; type: ADME, Meriones unguiculatus; conditions: gerbil
[7] = system: Helicobacter pylori; assay: Antibacterial activity against Helicobacter pylori SS1 infected in Mongolian gerbils assessed as decrease in bacterial density in mucus in 15 to 25 um above the Juxtamucosal layer at 0.25 mg, ip administered as single dose for 5 days measured after 90 mins post last dose; type: functional; parameters: scale not given: the % may be the effect or the level left
[8] = system: Helicobacter pylori; assay: Antibacterial activity against Helicobacter pylori SS1 infected in Mongolian gerbils assessed as bacterial disorientation in central layer at 0.25 mg, ip administered as two doses of solvent measured after 90 mins post last dose (reference value: 4560+/-400 bacteria per nl of mucus); type: functional, organism-based
[9] = system: Helicobacter pylori; assay: as §2, with “in 15” for “in 0”, “to 25” for “to 15”, “value: 2280+/-430” for “value: 4560+/-400”; type: functional
[10] = system: Helicobacter pylori; assay: Antibacterial activity against Helicobacter pylori SS1 infected in Mongolian gerbils assessed as bacterial disorientation in central mucus layer at 0.25 mg, ip followed by second dose administered as solvent in 24 hrs dosing interval measured after 90 mins post last dose; type: functional, organism-based
[11] = system: Helicobacter pylori; assay: (§3) Antibacterial activity against Helicobacter pylori SS1 infected in Mongolian gerbils assessed as bacterial density in mucus in 0 to 15 um above the Juxtamucosal layer at 0.25 mg, ip administered as two doses of solvent in 24 hrs dosing interval measured after 90 mins post last dose (reference value: 4560+/-400 bacteria per nl of mucus); type: functional
[12] = system: Helicobacter pylori; assay: Antibacterial activity against Helicobacter pylori SS1 infected in Mongolian gerbils assessed as bacterial disorientation in 15 to 25 um above the Juxtamucosal layer at 0.25 mg, ip followed by second dose administered as solvent in 24 hrs dosing interval measured after 90 mins post last dose; type: functional, organism-based
[13] = system: Helicobacter pylori; assay: as §3, with “luminal mucus” for “0 to 15 um above the Juxtamucosal”, “doses” for “doses of solvent”, “60+/-50” for “4560+/-400”; type: functional
[14] = system: Helicobacter pylori; assay: Antibacterial activity against Helicobacter pylori SS1 infected in Mongolian gerbils assessed as bacterial disorientation in 0 to 15 um above the Juxtamucosal layer at 0.25 mg, ip administered as two doses in 8 hrs dosing interval measured after 90 mins post last dose; type: functional, organism-based
[15] = system: Helicobacter pylori; assay: Antibacterial activity against Helicobacter pylori SS1 infected in Mongolian gerbils assessed as bacterial disorientation in central mucus layer at 0.25 mg, ip administered as two doses in 24 hrs dosing interval measured after 90 mins post last dose; type: functional, organism-based
[16] = system: Helicobacter pylori; assay: Antibacterial activity against Helicobacter pylori SS1 infected in Mongolian gerbils assessed as bacterial disorientation in luminal mucus layer at 20 uM, ip administered as single dose through dialysis measured after 90 mins post last dose; type: functional, organism-based
[17] = system: Helicobacter pylori; assay: as §2, with “luminal mucus” for “0 to 15 um above the Juxtamucosal”, “60+/-50” for “4560+/-400”; type: functional
[18] = system: Helicobacter pylori; assay: as §3, with “luminal mucus” for “0 to 15 um above the Juxtamucosal”, “doses” for “doses of solvent”, “8” for “24”, “60+/-50” for “4560+/-400”; type: functional
[19] = system: Helicobacter pylori; assay: Antibacterial activity against Helicobacter pylori SS1 infected in Mongolian gerbils assessed as bacterial density in mucus in luminal mucus layer at 20 uM, ip administered as single dose through dialysis measured after 90 mins post last dose (reference value: 60+/-50 bacteria per nl of mucus); type: functional
[20] = system: Helicobacter pylori; assay: Antibacterial activity against Helicobacter pylori SS1 infected in Mongolian gerbils assessed as bacterial disorientation in luminal mucus layer at 0.25 mg, ip followed by second dose administered as solvent in 24 hrs dosing interval measured after 90 mins post last dose; type: functional, organism-based
[21] = system: Helicobacter pylori; assay: Antibacterial activity against Helicobacter pylori SS1 infected in Mongolian gerbils assessed as bacterial disorientation in 15 to 25 um above the Juxtamucosal layer at 0.25 mg, ip administered as two doses in 24 hrs dosing interval measured after 90 mins post last dose; type: functional, organism-based
[22] = system: Helicobacter pylori; assay: Antibacterial activity against Helicobacter pylori SS1 infected in Mongolian gerbils assessed as decrease in bacterial density in mucus in 0 to 15 um above the Juxtamucosal layer at 0.25 mg, ip administered as single dose for 5 days measured after 90 mins post last dose; type: functional; parameters: scale not given: the % may be the effect or the level left
[23] = system: Helicobacter pylori; assay: Antibacterial activity against Helicobacter pylori SS1 infected in Mongolian gerbils assessed as bacterial disorientation in 0 to 15 um above the Juxtamucosal layer at 0.25 mg, ip followed by second dose administered as solvent in 24 hrs dosing interval measured after 90 mins post last dose; type: functional, organism-based
[24] = system: Helicobacter pylori; assay: Antibacterial activity against Helicobacter pylori SS1 infected in Mongolian gerbils assessed as bacterial disorientation in 0 to 15 um above the Juxtamucosal layer at 0.25 mg, ip administered as two doses in 24 hrs dosing interval measured after 90 mins post last dose; type: functional, organism-based
[25] = system: Helicobacter pylori; assay: as §1, with “15 to 25 um above the Juxtamucosal” for “central mucus”, “2280+/-430” for “90+/-60”; type: functional
[26] = system: Helicobacter pylori; assay: Antibacterial activity against Helicobacter pylori SS1 infected in Mongolian gerbils assessed as bacterial orientation in luminal mucus layer at 35 ug/ml administered as single dose in 8 hrs dosing interval; type: functional, organism-based
[27] = system: Helicobacter pylori; assay: as §3, with “in 15” for “in 0”, “to 25” for “to 15”, “doses” for “doses of solvent”, “value: 2280+/-430” for “value: 4560+/-400”; type: functional
[28] = system: Helicobacter pylori; assay: Antibacterial activity against Helicobacter pylori SS1 infected in Mongolian gerbils assessed as bacterial disorientation in luminal mucus layer at 0.25 mg, ip administered as two doses in 24 hrs dosing interval measured after 90 mins post last dose; type: functional, organism-based

## COc1ccc2[nH]c([S+]([O-])Cc3ncc(C)c(OC)c3C)nc2c1 (stereo not drawn) [OMEPRAZOLE]
[1]
  Activity: inactive
[2]
  Activity: 70 nL⁻¹
[3]
  Activity: 4790 nL⁻¹
[4]
  Activity: inactive
[5]
  Activity: 300 nL⁻¹
[6]
  Cmax: 10 µM
[7]
  Activity: 5%
[8]
  Activity: inactive
[9]
  Activity: 2030 nL⁻¹
[10]
  Activity: inactive
[11]
  Activity: 5740 nL⁻¹
[12]
  Activity: inactive
[13]
  Activity: 120 nL⁻¹
[14]
  Activity: Active
[15]
  Activity: inactive
[16]
  Activity: inactive
[17]
  Activity: 50 nL⁻¹
[18]
  Activity: 30 nL⁻¹
[19]
  Activity: 50 nL⁻¹
[20]
  Activity: inactive
[21]
  Activity: Active
[22]
  Activity: 5%
[23]
  Activity: Active
[24]
  Activity: Active
[25]
  Activity: 2010 nL⁻¹
[26]
  Activity: inactive
[27]
  Activity: 2230 nL⁻¹
[28]
  Activity: inactive
